From ChEMBL document CHEMBL3045175, “Synthesis and Neuromuscular Blocking Activity of 16-Piperidino Epiandrosterone Derivatives” (Med Chem Res, 2005)
Calls of active or inactive are those of the source. The calls are words filed in the database; no cut-off is given here.

What was measured:
[1] = organism: Gallus gallus; experiment: Binding affinity to acetylcholine receptor in isolated Gallus gallus (chicken) biventar cervicis muscle assessed as reduction of twitch response to carbachol after washout
[2] = (§1) Inhibition of Electrophorus electricus (electric eel) acetylcholinesterase
[3] = test system: Electrophorus electricus; experiment: as §1
[4] = organism: Gallus gallus; experiment: Binding affinity to acetylcholine receptor in isolated Gallus gallus (chicken) biventar cervicis muscle assessed as reduction of twitch response to carbachol at 5 uM up to 10 min
[5] = organism: Gallus gallus; experiment: Binding affinity to acetylcholine receptor in isolated Gallus gallus (chicken) biventar cervicis muscle assessed as reduction of twitch response to carbachol in presence of neostigmine
[6] = organism: Gallus gallus; experiment: Binding affinity to acetylcholine receptor in isolated Gallus gallus (chicken) biventar cervicis muscle assessed as reduction of twitch response to carbachol
[7] = organism: Gallus gallus; experiment: Binding affinity to acetylcholine receptor in isolated Gallus gallus (chicken) biventar cervicis muscle assessed as reduction of twitch response to carbachol at 1 uM up to 10 min

| Structure (SMILES) | Activity [1] | Ki [2] | inhibition [3] | Activity [4] | Activity [5] | K [6] | Activity [7] |
| --- | --- | --- | --- | --- | --- | --- | --- |
| C[C@]12CC[C@H](N3CCCC3)C[C@@H]1CC[C@@H]1[C@@H]2CC[C@]2(C)[C@@H](O)[C@@H](N3CCCCC3)C[C@@H]12 | inactive | 620 nM | Dose-dependent effect | Active | inactive | 0.9 µM |  |
| CC(=O)O[C@H]1[C@@H](N2CCCCC2)C[C@H]2[C@@H]3CC[C@H]4C[C@@H](N5CCCC5)CC[C@]4(C)[C@H]3CC[C@@]21C | inactive | 980 nM | Dose-dependent effect |  | inactive | 0.2 µM | Active |
